Assay results taken from BindingDB's records for doi:10.1038/nchembio.2304 (Novartis Institutes for BioMedical Research, 2017).

What was measured:
Experiment in all cases: HMT Assay
[1] = target: T1, Protein arginine N-methyltransferase 1 [11-371] (Homo sapiens, UniProt Q99873)
T1 construct: 11-371

[2] = target: Histone-lysine N-methyltransferase SUV39H2 (Human, UniProt Q9H5I1)
[3] = target: N-lysine methyltransferase SETD6 (Human, UniProt Q8TBK2)
[4] = target: Methylosome protein 50/Protein arginine N-methyltransferase 5 (Homo sapiens, UniProt O14744)
[5] = target: Histone-lysine N-methyltransferase NSD3 (Homo sapiens, UniProt Q9BZ95)
Histone-lysine N-methyltransferase NSD3, sequence (Q9BZ95 whole entry): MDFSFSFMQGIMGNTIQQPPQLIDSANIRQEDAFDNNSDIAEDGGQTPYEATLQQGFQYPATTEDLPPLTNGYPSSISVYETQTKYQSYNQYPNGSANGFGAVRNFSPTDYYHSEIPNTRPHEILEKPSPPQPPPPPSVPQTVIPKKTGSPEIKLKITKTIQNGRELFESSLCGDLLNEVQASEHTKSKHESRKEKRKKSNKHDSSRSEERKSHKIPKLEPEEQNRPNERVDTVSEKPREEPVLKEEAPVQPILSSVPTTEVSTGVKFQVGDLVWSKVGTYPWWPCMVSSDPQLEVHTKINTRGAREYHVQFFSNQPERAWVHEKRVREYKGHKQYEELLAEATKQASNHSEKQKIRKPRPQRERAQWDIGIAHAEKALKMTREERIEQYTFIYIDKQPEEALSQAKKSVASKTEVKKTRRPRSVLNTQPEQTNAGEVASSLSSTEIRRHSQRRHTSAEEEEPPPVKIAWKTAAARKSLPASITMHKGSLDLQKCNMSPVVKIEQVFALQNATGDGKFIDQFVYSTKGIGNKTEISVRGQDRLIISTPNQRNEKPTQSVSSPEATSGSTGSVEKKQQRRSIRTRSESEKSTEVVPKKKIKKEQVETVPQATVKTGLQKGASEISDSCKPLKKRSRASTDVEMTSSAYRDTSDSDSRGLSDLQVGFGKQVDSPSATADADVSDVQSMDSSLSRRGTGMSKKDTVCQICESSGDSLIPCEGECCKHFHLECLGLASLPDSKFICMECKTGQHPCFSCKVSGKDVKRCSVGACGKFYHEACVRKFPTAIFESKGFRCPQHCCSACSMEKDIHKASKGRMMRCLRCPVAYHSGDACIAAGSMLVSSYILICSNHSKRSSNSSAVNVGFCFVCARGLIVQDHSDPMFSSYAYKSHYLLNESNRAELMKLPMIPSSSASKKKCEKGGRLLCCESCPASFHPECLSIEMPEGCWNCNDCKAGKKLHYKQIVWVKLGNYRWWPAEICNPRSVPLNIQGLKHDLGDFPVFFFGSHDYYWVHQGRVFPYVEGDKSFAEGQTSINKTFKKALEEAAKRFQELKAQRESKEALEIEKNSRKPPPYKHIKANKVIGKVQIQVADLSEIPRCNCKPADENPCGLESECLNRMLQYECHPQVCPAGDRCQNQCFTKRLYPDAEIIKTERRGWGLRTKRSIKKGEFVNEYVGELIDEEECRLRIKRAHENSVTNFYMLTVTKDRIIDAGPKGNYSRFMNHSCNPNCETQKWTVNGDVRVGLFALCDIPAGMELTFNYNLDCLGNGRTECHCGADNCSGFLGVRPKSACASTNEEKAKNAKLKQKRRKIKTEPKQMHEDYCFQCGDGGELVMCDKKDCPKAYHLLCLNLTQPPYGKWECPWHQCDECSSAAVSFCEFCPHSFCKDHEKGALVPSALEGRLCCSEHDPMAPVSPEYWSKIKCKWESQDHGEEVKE

[6] = target: DNA (cytosine-5)-methyltransferase 1 (Homo sapiens, UniProt P26358)
[7] = target: T2, Mitogen-activated protein kinase kinase kinase 8 [30-404] (Human, UniProt P41279)
T2 construct: 30-404

[8] = target: Tyrosine-protein kinase BTK (Homo sapiens, UniProt Q06187)
[9] = target: Muscarinic acetylcholine receptor M2 (Homo sapiens, UniProt P08172)
[10] = target: Serine/threonine-protein kinase 4 (Human, UniProt Q13043)
[11] = target: T3, Fibroblast growth factor receptor 2 [406-821] (Human, UniProt P21802)
T3 construct: 406-821

[12] = target: Protein arginine N-methyltransferase 3 [N508S] (Homo sapiens, UniProt O60678, N508S)
[13] = target: Protein kinase C theta type (Homo sapiens, UniProt Q04759)
[14] = target: T4, Fibroblast growth factor receptor 4 [388-802] (Human, UniProt P22455)
T4 construct: 388-802

[15] = target: Alpha-1A adrenergic receptor (Homo sapiens, UniProt P35348)
[16] = target: T5, Rho-associated protein kinase 2 [6-553] (Human, UniProt O75116)
T5 construct: 6-553

D(1A) dopamine receptor = D(1A) dopamine receptor (Homo sapiens, UniProt P21728)
D(1A) dopamine receptor, sequence (P21728 whole entry): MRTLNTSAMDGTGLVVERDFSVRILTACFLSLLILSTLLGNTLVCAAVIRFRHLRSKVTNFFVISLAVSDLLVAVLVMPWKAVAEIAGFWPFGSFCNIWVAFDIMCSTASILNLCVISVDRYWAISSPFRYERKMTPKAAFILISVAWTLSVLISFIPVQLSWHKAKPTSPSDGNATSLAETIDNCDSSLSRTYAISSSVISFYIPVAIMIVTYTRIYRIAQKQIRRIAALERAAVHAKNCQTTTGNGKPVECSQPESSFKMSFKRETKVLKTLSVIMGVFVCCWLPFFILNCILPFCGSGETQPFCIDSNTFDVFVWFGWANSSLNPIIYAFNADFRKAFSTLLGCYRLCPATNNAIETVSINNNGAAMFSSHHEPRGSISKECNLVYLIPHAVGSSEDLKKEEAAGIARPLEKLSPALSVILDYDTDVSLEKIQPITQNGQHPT

[17] = target: Gamma-aminobutyric acid receptor subunit alpha-1 (Homo sapiens, UniProt P14867)
[18] = target: Mitogen-activated protein kinase kinase kinase kinase 4 (Homo sapiens, UniProt O95819)
[19] = target: Serine/threonine-protein kinase 17B (Homo sapiens, UniProt O94768)
Serine/threonine-protein kinase 17B, sequence (O94768 whole entry): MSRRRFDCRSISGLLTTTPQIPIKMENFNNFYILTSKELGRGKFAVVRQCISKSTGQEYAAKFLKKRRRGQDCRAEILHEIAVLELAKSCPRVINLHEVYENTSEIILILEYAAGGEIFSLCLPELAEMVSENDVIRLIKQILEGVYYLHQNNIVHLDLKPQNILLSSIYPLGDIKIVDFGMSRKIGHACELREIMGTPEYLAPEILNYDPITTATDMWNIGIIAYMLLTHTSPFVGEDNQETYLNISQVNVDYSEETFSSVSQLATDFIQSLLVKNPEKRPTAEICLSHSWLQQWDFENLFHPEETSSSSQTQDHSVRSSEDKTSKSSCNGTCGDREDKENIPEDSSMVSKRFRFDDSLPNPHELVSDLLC

[20] = target: Sodium-dependent noradrenaline transporter (Homo sapiens, UniProt P23975)
Sodium-dependent noradrenaline transporter, sequence (P23975 whole entry): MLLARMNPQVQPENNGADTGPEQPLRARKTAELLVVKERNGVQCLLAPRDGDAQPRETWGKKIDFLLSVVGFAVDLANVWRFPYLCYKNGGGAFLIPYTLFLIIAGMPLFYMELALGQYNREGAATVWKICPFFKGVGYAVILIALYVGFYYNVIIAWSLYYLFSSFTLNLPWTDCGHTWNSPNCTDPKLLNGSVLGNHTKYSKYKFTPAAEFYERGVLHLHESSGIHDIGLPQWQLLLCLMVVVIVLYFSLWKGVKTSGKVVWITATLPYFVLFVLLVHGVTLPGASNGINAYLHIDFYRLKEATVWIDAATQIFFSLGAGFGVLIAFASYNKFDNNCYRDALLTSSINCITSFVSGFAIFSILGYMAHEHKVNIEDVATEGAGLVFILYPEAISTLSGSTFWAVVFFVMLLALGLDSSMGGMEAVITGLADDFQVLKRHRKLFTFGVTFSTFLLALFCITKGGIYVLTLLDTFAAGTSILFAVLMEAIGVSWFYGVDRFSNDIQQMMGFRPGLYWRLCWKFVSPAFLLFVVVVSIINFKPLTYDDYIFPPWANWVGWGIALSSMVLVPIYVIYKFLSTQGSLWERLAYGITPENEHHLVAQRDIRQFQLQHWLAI

[21] = target: T6, Tyrosine-protein kinase ABL1 [64-515] (Homo sapiens, UniProt P00519)
T6 construct: 64-515

[22] = target: Tyrosine-protein kinase Lyn (Homo sapiens, UniProt P07948)
[23] = target: T7, Receptor-type tyrosine-protein kinase FLT3 [563-993,D835Y] (Human, UniProt P36888, D835Y)
T7 construct: 563-993

Estrogen receptor = Estrogen receptor (Homo sapiens, UniProt P03372)
[24] = target: T8, Interleukin-1 receptor-associated kinase 1 [184-712] (Human, UniProt P51617)
T8 construct: 184-712

[25] = target: Protein kinase C alpha type (Homo sapiens, UniProt P17252)
[26] = target: 5-hydroxytryptamine receptor 1A (Homo sapiens, UniProt P08908)
[27] = target: Acetylcholine receptor subunit alpha (Homo sapiens, UniProt P02708)
[28] = target: Histone-lysine N-methyltransferase SMYD3 (Homo sapiens, UniProt Q9H7B4)
Histone-lysine N-methyltransferase SMYD3, sequence (Q9H7B4 whole entry): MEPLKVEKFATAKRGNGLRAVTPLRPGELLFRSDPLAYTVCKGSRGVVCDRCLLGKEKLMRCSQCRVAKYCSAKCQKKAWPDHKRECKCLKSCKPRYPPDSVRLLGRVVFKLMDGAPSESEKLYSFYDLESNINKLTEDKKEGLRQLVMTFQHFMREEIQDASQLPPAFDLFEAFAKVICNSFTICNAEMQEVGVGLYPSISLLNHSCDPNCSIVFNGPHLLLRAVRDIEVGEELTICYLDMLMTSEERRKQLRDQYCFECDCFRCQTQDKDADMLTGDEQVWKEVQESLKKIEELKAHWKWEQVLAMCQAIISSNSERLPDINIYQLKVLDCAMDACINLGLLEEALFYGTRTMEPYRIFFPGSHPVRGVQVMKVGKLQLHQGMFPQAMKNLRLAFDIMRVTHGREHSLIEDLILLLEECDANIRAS
Protocol: (§1) All HMT reactions were performed as described previously [Nasveschuk et al., ACS Med. Chem. Lett., 5:378-383].

[29] = target: Histone-lysine N-methyltransferase SETD2 (Homo sapiens, UniProt Q9BYW2)
Protocol: as §1

[30] = target: Histone-lysine N-methyltransferase EHMT2 (Homo sapiens, UniProt Q96KQ7)
Histone-lysine N-methyltransferase EHMT2, sequence (Q96KQ7 whole entry): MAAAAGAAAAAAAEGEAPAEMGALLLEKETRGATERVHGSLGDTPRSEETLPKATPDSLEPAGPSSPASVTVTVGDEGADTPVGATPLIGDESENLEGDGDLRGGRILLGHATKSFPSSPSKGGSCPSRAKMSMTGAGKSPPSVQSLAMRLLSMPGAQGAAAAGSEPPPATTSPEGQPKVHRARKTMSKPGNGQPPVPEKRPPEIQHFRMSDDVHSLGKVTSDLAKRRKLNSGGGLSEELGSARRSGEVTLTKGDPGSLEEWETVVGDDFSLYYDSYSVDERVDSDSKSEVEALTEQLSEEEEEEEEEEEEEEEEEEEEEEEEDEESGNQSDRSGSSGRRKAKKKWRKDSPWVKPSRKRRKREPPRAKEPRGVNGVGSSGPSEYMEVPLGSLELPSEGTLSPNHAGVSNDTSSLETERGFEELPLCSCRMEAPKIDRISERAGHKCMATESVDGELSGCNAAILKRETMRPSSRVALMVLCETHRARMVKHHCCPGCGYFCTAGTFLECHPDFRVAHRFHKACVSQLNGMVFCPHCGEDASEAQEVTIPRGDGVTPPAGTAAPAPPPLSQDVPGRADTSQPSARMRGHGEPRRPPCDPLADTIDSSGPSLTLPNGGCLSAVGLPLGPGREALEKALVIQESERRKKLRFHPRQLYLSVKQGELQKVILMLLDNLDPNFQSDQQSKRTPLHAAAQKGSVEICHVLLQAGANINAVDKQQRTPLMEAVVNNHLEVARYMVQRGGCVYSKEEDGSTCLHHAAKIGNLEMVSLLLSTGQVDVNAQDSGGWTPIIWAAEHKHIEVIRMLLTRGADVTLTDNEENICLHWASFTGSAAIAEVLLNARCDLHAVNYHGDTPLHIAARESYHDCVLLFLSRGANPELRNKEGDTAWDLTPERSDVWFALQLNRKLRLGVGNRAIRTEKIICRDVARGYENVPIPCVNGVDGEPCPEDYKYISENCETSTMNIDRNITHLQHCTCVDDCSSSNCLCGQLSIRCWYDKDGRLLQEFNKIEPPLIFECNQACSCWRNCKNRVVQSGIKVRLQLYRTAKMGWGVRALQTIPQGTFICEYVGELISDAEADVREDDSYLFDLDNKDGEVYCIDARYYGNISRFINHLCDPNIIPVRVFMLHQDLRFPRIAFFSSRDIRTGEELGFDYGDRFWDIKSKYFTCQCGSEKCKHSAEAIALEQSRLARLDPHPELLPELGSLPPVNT
Protocol: as §1

[31] = target: Histone-lysine N-methyltransferase, H3 lysine-79 specific (Homo sapiens, UniProt Q8TEK3)
Protocol: as §1

[32] = target: Histone-lysine N-methyltransferase SETDB1 (Homo sapiens, UniProt Q15047)
Protocol: as §1

[33] = target: Histone-arginine methyltransferase CARM1 (Homo sapiens, UniProt Q86X55)
Protocol: as §1

[34] = target: N-lysine methyltransferase SMYD2 (Homo sapiens, UniProt Q9NRG4)
Protocol: as §1

[35] = target: Histone-lysine N-methyltransferase NSD2 (Homo sapiens, UniProt O96028)
Protocol: as §1

[36] = target: Histone-lysine N-methyltransferase SETD7 (Homo sapiens, UniProt Q8WTS6)
Histone-lysine N-methyltransferase SETD7, sequence (Q8WTS6 whole entry): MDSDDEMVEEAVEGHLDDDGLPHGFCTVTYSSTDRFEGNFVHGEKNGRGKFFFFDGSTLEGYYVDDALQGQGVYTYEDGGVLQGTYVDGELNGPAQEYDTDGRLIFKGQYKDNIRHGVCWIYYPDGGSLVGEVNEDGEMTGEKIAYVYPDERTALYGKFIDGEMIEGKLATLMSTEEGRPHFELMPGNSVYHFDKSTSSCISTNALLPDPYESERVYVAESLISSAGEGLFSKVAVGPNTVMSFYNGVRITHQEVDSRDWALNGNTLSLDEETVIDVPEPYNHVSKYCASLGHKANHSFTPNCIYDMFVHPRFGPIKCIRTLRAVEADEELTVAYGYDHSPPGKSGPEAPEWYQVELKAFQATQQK
Protocol: as §1

Question: With `CS(=O)(=O)c1ccc(-c2cnc(NCc3ccco3)n3cnnc23)cc1` [EED226] as the compound, how does the IC50 [1] read?
Answer: > 100 µM

Question: And the IC50 [2]?
Answer: > 100 µM

Question: What about the IC50 [3] of the same compound?
Answer: > 100 µM

Question: What about the IC50 [4] of the same compound?
Answer: > 100 µM

Question: And the IC50 [5]?
Answer: > 100 µM

Question: What about the IC50 [6] of the same compound?
Answer: > 100 µM

Question: What about the IC50 [7] of the same compound?
Answer: > 10 µM

Question: What about the IC50 [8] of the same compound?
Answer: > 10 µM

Question: What about the IC50 [9] of the same compound?
Answer: > 30 µM

Question: And the IC50 [10]?
Answer: > 10 µM

Question: And the IC50 [11]?
Answer: > 10 µM

Question: What about the IC50 [12] of the same compound?
Answer: > 100 µM

Question: What about the IC50 [13] of the same compound?
Answer: > 10 µM

Question: And the IC50 [14]?
Answer: > 10 µM

Question: What about the IC50 [15] of the same compound?
Answer: > 30 µM

Question: And the IC50 [16]?
Answer: > 10 µM

Question: And the IC50 (D(1A) dopamine receptor)?
Answer: > 30 µM

Question: And the IC50 [17]?
Answer: > 30 µM

Question: What about the IC50 [18] of the same compound?
Answer: > 10 µM

Question: And the IC50 [19]?
Answer: > 10 µM

Question: What about the IC50 [20] of the same compound?
Answer: > 30 µM

Question: What about the IC50 [21] of the same compound?
Answer: > 10 µM

Question: What about the IC50 [22] of the same compound?
Answer: > 10 µM

Question: And the IC50 [23]?
Answer: > 10 µM

Question: And the IC50 (Estrogen receptor)?
Answer: > 30 µM

Question: What about the IC50 [24] of the same compound?
Answer: > 10 µM

Question: And the IC50 [25]?
Answer: > 10 µM

Question: And the IC50 [26]?
Answer: > 30 µM

Question: What about the IC50 [27] of the same compound?
Answer: > 30 µM

Question: And the IC50 [28]?
Answer: > 100 µM

Question: And the IC50 [29]?
Answer: > 100 µM

Question: What about the IC50 [30] of the same compound?
Answer: > 100 µM

Question: What about the IC50 [31] of the same compound?
Answer: > 100 µM

Question: And the IC50 [32]?
Answer: > 100 µM

Question: And the IC50 [33]?
Answer: > 100 µM

Question: What about the IC50 [34] of the same compound?
Answer: > 100 µM

Question: And the IC50 [35]?
Answer: > 100 µM

Question: What about the IC50 [36] of the same compound?
Answer: > 100 µM
